Assay results reported in publication PMC12649535, “Development of New Antimicrobial Peptides by Directional Selection” (Antibiotics, 2025).
Ends that are not written are not given here.

What was measured:
Type in all cases: cell-based
[1] = tested on: Bacillus subtilis 168 HT; settings: 16 h
Text: (§1) Peptides were synthesized on an automated Liberty Blue synthesizer (CEM Corp., Matthews, NC, USA) using solid-phase Fmoc chemistry with microwave-assisted heating. Two types of resin were selected for peptide synthesis to accommodate different molecular weights. Fmoc-Rink amide aminomethyl-polystyrene resin (ABCR GmbH & Co KG, Karlsruhe, Germany) with a loading capacity of 0.78 mmol/g was used for peptides with a molecular weight of up to 3 kDa. For peptides with a molecular weight exceeding 3 kDa, Fmoc-Rink amide PEG MBHA resin (ABCR GmbH & Co KG, Karlsruhe, Germany) with a loading capacity of 0.48 mmol/g was used. The target products were obtained with a purity of over 95% after purification of the peptides by reversed-phase HPLC on an AKTA Pure 25 M1 system (GE Healthcare Life Sciences, Chicago, IL, USA) equipped with a Zorbax SB-C18 column (Agilent Technologies, Santa Clara, CA, USA) and UV detection. All HPLC-spectra and HRMS-spectra are available at the Supplementary Materials (Figures S1–S23). The antimicrobial activity of synthetic peptides was measured using the standard microdilution method in microtiter plates. Peptides were dissolved in water to a concentration of 1 mM. Cultures of Bacillus subtilis 168 HT and Escherichia coli MG1655 were grown in a shaker at 30 °C in MHB medium (BD Difco, Thermo Fisher Scientific Inc., Waltham, MA, USA) for 16 h. The resulting cultures were diluted 1:50 in fresh MHB medium and grown in a shaker at 37 °C until reaching mid-logarithmic phase. The bacterial cultures were then further diluted in MHB to a concentration of 10^6 CFU/mL.
(§2) Peptides were serially twofold diluted in MHB in 96-well plates to final concentrations ranging from 100 to 0.2 µM, with a total volume of 50 µL per well. Subsequently, 50 µL of bacterial suspension (10^6 CFU/mL) was added to each well. Plates were incubated overnight at 37 °C. Each experiment included positive controls (melittin) and negative controls (without peptide). Antimicrobial activity was assessed by measuring the optical density at 600 nm (OD600) using a microplate reader AMR-100.

[2] = tested on: Escherichia coli MG1655; settings: MG1655, 16 h
Text: as §1, §2

[3] = tested on: Expi293F cells; assay: Cytotoxicity, MTT assay; settings: Figure 7 and text, 24 h, 200 to 0.0975 µM, NA = no activity within tested concentration range
Description: For the synthesized peptides, we determined the minimum inhibitory concentration (MIC) against B. subtilis (MICBs) and E. coli (MICEc) and measured cytotoxicity (IC90) in Expi293F cells (human embryonic kidney cells) using an MTT assay (Figure 7A–C, Tables S1–S4).
Peptide cytotoxicity was assessed using the MTT assay on Expi293F cells (human embryonic kidney cells) (Thermo Fisher Scientific, Waltham, MA, USA). Viable cells with active metabolism reduce water-soluble MTT (Abcam, Cambridge, UK) to insoluble formazan, while dead cells lose this ability and produce no signal. The absorbance measured at 600 nm is proportional to the number of living cells. Expi293F cells were seeded in 96-well plates at a density of 1 × 10^5 cells/mL. After 24 h, peptides were added to the wells at final concentrations ranging from 200 to 0.0975 µM. […] Cells were incubated with peptides in a CO2 incubator at 37 °C and 5% CO2 for 24 h. […] Peptide cytotoxicity was evaluated by measuring optical density at 600 nm and 690 nm using a microplate reader AMR-100. Normalized absorbance was defined as (OD600–OD690). The percentage of cell viability was calculated using the formula: % Cell viability = (ODtreated/ODtotal) × 100, where ODtreated is the normalized absorbance of treated cells and ODtotal is the normalized absorbance of non-treated (control) cells.

Row | Substance | MIC B. subtilis [1] | MIC E. coli [2] | IC90 (cytotoxicity, concentration that inhibits 90% of cell growth) [3]
1 | EIGWRRRICNYL-NH2 [A2R2P7] | 6.2 µM | 25.0 µM | –
2 | EKDWPRRILYCF-NH2 [A2R3P10] | 50.0 µM | – | –
3 | EKGRRRWIFYFF-NH2 [A2R3P7] | 25.0 µM | 12.5 µM | –
4 | EKGWLRRIFYCF-NH2 [A2R3P8] | 6.2 µM | 25.0 µM | –
5 | EKGWRRWIFFSF-NH2 [A2R3P6] | 12.5 µM | 12.5 µM | –
6 | EKGWRRWIFNYF-NH2 [A2R1P5] | 6.2 µM | 6.2 µM | –
7 | EKGWRRWIFYCF-NH2 [A2R2P3] | 25.0 µM | 50.0 µM | –
8 | EKRWRRLIFNYF-NH2 [Hm-AMP2, reference compound] | 12.5 µM | 3.1 µM | –
9 | SFVCKTVKKMNNSAKKGFREGIALAIQGGPR-NH2 [CR2P8] | 25.0 µM | 6.2 µM | –
10 | SLIFKIVKKMDDIGKKRIREGIAIPLQGGPR-NH2 [CR2P7] | – | 50.0 µM | –
11 | SLMFITVKKLDNSSRIRIRVGIAIAIQGGPR-NH2 [CR2P2] | 25.0 µM | 25.0 µM | –
12 | SLMFKTVKKMDNSAKKRIREGIAIAIQGGPR-NH2 [CR1P5] | – | 6.2 µM | –
13 | SLMFKTVKKMDNSVKKRFREGMAIAMQCGPR-NH2 [CR2P9] | 25.0 µM | 3.1 µM | –
14 | SWLSKTAKKLENSAKKRISEGIAIAIQGGPR-NH2 [cecropin, reference compound] | – | 0.4 µM | 200 µM
